Entries after “also recorded” stand apart in the source; their conditions may differ. Like-named read-outs stand apart in the source and are kept apart here. Values belong to the molecule of their own block, whether it stands above or below them.
Assays:
[1] = test system: hepatocellular carcinoma (HepG-2); assay: MTT assay, HepG-2; type: cell-based, human; details: for antitumor impact on HepG-2: compared with DOX
From the text: (§1) Mammary gland (MCF-7;# ATCC HTB-22), colorectal adenocarcinoma (Caco-2; # ATCC HTB-37), hepatocellular carcinoma (HepG-2; #ATCC HB-8065), and human lung fibroblast (WI-38; # ATCC CCL-75). The ATCC cell line was obtained via the Holding Company for Biological Products and Vaccines (VACSERA), Cairo, Egypt.
(§2) The MTT test was utilized to ascertain the phosphonate's inhibitory effects on cell growth utilizing the aforementioned cell lines. The basis of this colorimetric assay is the transformation of yellow tetrazolium bromide (MTT) by mitochondrial succinate dehydrogenase in living cells into a purple formazan derivative. 10% fetal bovine serum was added to RPMI-1640 media used to cultivate cell lines. At 37 °C in an incubator with 5% CO2, 100 units/mL of penicillin and 100 µg/mLof streptomycin were introduced as antibiotics. The cell lines were seeded at 1.0 × 10^4 cells/well in a 96-well plate and kept at 37 °C for 24 h with 5% CO2. Following incubation, the cells were subjected to several concentrations of newly synthesized phosphonates and left for 48 h incubation. 20 µL of a 5 mg/mL MTT solution was added and incubated for 4 h after the drug treatment lasted for 48 h. To dissolve the purple formazan produced in each well, 100 µL of dimethyl sulfoxide (DMSO) was applied. Using a plate reader (EXL 800, USA), the colorimetric test is measured and recorded at the absorbance of 570 nm. (A570 of treated samples/A570 of untreated sample) X 100 was used to compute the relative cell viability as a percentage.

[2] = test system: colorectal adenocarcinoma (Caco-2); assay: MTT assay, Caco-2; type: cell-based, human; details: for IC50: Homo sapiens, Caco-2, 48 h, read-out: Anti-cancer activity CaCo-2 (IC50), MTT, 48 h; for antitumor impact on Caco-2: MTT, 48 h, compared with DOX
From the text: as §1, §2

[3] = test system: bacterial and fungal strains; assay: Disc diffusion, whole panel (result in words); type: cell-based; details: 1 mg/mL
Method: (§3) The produced compounds’ antimicrobial activity was evaluated using a panel of two gram-positive bacteria (Bacillus subtilis (#MTCC NO 441) and Staphylococcus aureus (#MTCC NO 96). as well as two Gram-negative bacteria (Pseudomonas aeruginosa (#MTCC NO 1688), Escherichia coli(#MTCC NO 452)). Two fungi [Candida albicans(#MTCC NO 183) and Aspergillus flavus(#MTCC NO 1344)] were used to assess the compounds' anti-fungal properties. Paper discs of Whatman filter paper with a standard size of […] were made, dissolved in DMSO, and then sterilized in an autoclave. A solution of 1 mg/mL was prepared for each drug separately. Paper discs soaked in the desired concentration of the complex solution were aseptically placed in Petri dishes containing nutrient agar media (20 g + 3 g of beef extract + 5 g of peptone) seeded with bacterial and fungal strains. After 24 h of incubation at 36 °C, the inhibitory zones in the petri dishes were measured. There were three copies of every treatment. Using the same protocol as previously described, the antifungal Clotrimazole and the common standard antibiotic Ciprofloxacin were also tested for antibacterial activity at the same concentrations and solvent combinations.

DPPH radical scavenging = details: for IC50: 0.1 mM DPPH in methanol, 30 min dark, 517 nm
Method: (§4) With slight modifications, the DPPH and ABTS methods were used to test the new phosphonate’s free radical scavenging activity. Briefly, one milliliter of a 0.1 mM DPPH in methanol solution and ABTS in distilled water were added to the newly synthesized compounds. For 30 min, the mixture was left in the dark. The synthetic compounds’ ability to scavenge free radicals was compared to that of L. Ascorbic acid. At 517 nm for DPPH and 734 nm for ABTS, optical density was recorded, and the concentration inhibition was computed.
(§5) The percentage of inhibition is equal to [(A control − A test)/A control] × 100, where A control represents the control absorbance and A test represents the test sample absorbance. It was established what sample concentration (IC50) produced 50% inhibition. Every experiment was conducted in triplicate, and the mean ± SE IC50 values were reported.

[4] = test system: human lung fibroblast (WI-38); assay: MTT assay, WI-38 normal cells; type: cell-based; details: 48 h
From the text: as §1, §2

ABTS radical scavenging = details: for IC50: 30 min dark, 734 nm
Method: as §4, §5

Mammary gland (MCF-7) = assay: MTT assay, MCF-7; type: cell-based, human; details: for IC50: Homo sapiens, MCF7, 48 h, read-out: Anti-cancer activity MCF-7 (IC50), MTT, 48 h; for antitumor impact on MCF-7: MTT, 48 h, compared with DOX
From the text: as §1, §2

Escherichia coli = assay: Disc diffusion, E. coli; type: cell-based; details: inhibition zone vs standard drug, 1 mg/mL, 24 h, 36 °C
Method: as §3

Pseudomonas aeruginosa = assay: Disc diffusion, P. aeruginosa; type: cell-based; details: inhibition zone vs standard drug, 1 mg/mL, 24 h, 36 °C
Method: as §3

Bacillus subtilis = assay: Disc diffusion, B. subtilis; type: cell-based; details: inhibition zone vs standard drug, 1 mg/mL, 24 h, 36 °C
Method: as §3

Aspergillus flavus = assay: Disc diffusion, A. flavus; type: cell-based; details: inhibition zone vs standard drug, 1 mg/mL, 24 h, 36 °C
Method: as §3

Candida albicans = assay: Disc diffusion, C. albicans; type: cell-based; details: inhibition zone vs standard drug, 1 mg/mL, 24 h, 36 °C
Method: as §3

Staphylococcus aureus = assay: Disc diffusion, S. aureus; type: cell-based; details: inhibition zone vs standard drug, 1 mg/mL, 24 h, 36 °C
Method: as §3

[5] = Homo sapiens, HepG2, 48 h, read-out: Anti-cancer activity HepG-2 (IC50), MTT, 48 h

Structure (SMILES): CCOP(=O)(OCC)C(Nc1ncc(Cl)cc1Cl)c1ccc(O)c(OC)c1 (stereo not drawn) [Compound 3a, Diethyl(((3,5-dichloropyridin-2-yl)amino)(4-hydroxy-3-methoxyphenyl)methyl)phosphonate]
IC50 [1, 5]: 17.9 ± 1.3 µM
IC50 [2]: 3.3 µM
antitumor impact on Caco-2 [2]: low effect
biocidal effect against bacterial and fungal strains [3]: moderate
melting point: 66 to 68 °C
DPPH scavenging (DPPH radical scavenging): moderate impact
cytotoxic effect on WI-38 normal cells [4]: without any toxic effects
ABTS scavenging (ABTS radical scavenging): moderate impact

Structure (SMILES): CCOP(=O)(OCC)C(Nc1ncc(Cl)cc1Cl)c1ccc(O)cc1 (stereo not drawn) [Compound 3b, Diethyl (((3,5-dichloropyridin-2-yl)amino)(4-hydroxyphenyl)methyl)phosphonate]
IC50 [1, 5]: 66.8 ± 3.5 µM
biocidal effect against bacterial and fungal strains [3]: weak
melting point: 56 to 58 °C
DPPH scavenging (DPPH radical scavenging): weak capacity
ABTS scavenging (ABTS radical scavenging): weak capacity

Structure (SMILES): CCOP(=O)(OCC)C(Nc1ncc(Cl)cc1Cl)c1ccccc1OC (stereo not drawn) [Compound 3c, Diethyl (((3,5-dichloropyridin-2-yl)amino)(2-methoxyphenyl)methyl)phosphonate]
antitumor impact on HepG-2 ([1]; MTT, 48 h): moderate to weak impact
IC50 [2]: 2.3 µM
antitumor impact on Caco-2 [2]: moderate to weak impact
biocidal effect against bacterial and fungal strains [3]: moderate
melting point: 73 to 75 °C
DPPH scavenging (DPPH radical scavenging): weak capacity
ABTS scavenging (ABTS radical scavenging): weak capacity
IC50 (Mammary gland (MCF-7)): 2.1 µM
antitumor impact on MCF-7 (Mammary gland (MCF-7)): moderate to weak impact

Structure (SMILES): CCOP(=O)(OCC)C(Nc1ncc(Cl)cc1Cl)c1c(O)ccc2ccccc12 (stereo not drawn) [Compound 3d, Diethyl (((3,5-dichloropyridin-2-yl)amino)(2-hydroxynaphthalen-1-yl)methyl)phosphonate]
activity index E. coli (Escherichia coli): 42.3%
activity index P. aeruginosa (Pseudomonas aeruginosa): 60.9%
melting point: 145 to 147 °C
activity index B. subtilis (Bacillus subtilis): 52.2%
IC50 (DPPH radical scavenging): 20.04 ± 0.14 µM
cytotoxic effect on WI-38 normal cells [4]: no cytotoxic effects; also recorded: without any toxic effects
activity index A. flavus (Aspergillus flavus): 72%
activity index C. albicans (Candida albicans): 81.5%
IC50 (ABTS radical scavenging): 29.14 ± 0.18 µM
activity index S. aureus (Staphylococcus aureus): 62.5%

Structure (SMILES): CCOP(=O)(OCC)C(Nc1ncc(Cl)cc1Cl)c1ccc(N(C)C)cc1 (stereo not drawn) [Compound 3e, Diethyl (((3,5-dichloropyridin-2-yl)amino)(4-(dimethylamino)phenyl)methyl)phosphonate]
IC50 [1, 5]: 3.1 µM
antitumor impact on HepG-2 ([1]; MTT, 48 h): moderate to weak impact
antitumor impact on Caco-2 [2]: moderate to weak impact
biocidal effect against bacterial and fungal strains [3]: weak
melting point: 70 to 72 °C
DPPH scavenging (DPPH radical scavenging): weak capacity
ABTS scavenging (ABTS radical scavenging): weak capacity
IC50 (Mammary gland (MCF-7)): 3.4 µM
antitumor impact on MCF-7 (Mammary gland (MCF-7)): moderate to weak impact

Structure (SMILES): CCOP(=O)(OCC)C(Nc1ncc(Cl)cc1Cl)c1ccsc1 (stereo not drawn) [Compound 3f, Diethyl (((3,5-dichloropyridin-2-yl)amino)(thiophen-3-yl)methyl)phosphonate]
IC50 [2]: 1.7 µM
antitumor impact on Caco-2 [2]: low effect
biocidal effect against bacterial and fungal strains [3]: moderate
melting point: 88 to 90 °C
DPPH scavenging (DPPH radical scavenging): moderate impact
cytotoxic effect on WI-38 normal cells [4]: without any toxic effects
ABTS scavenging (ABTS radical scavenging): moderate impact

Structure (SMILES): CCOP(=O)(OCC)C(Nc1ncc(Cl)cc1Cl)c1ccccc1O (stereo not drawn) [Compound 3g, Diethyl (((3,5-dichloropyridin-2-yl)amino)(2-hydroxyphenyl)methyl)phosphonate]
IC50 [1, 5]: 2.4 µM
antitumor impact on HepG-2 ([1]; MTT, 48 h): moderate to weak impact
IC50 [2]: 3 µM
antitumor impact on Caco-2 [2]: moderate to weak impact
biocidal effect against bacterial and fungal strains [3]: weak
melting point: 100 to 102 °C
DPPH scavenging (DPPH radical scavenging): weak capacity
ABTS scavenging (ABTS radical scavenging): weak capacity
IC50 (Mammary gland (MCF-7)): 2.6 µM
antitumor impact on MCF-7 (Mammary gland (MCF-7)): moderate to weak impact

IC50 ([1]; MTT, 48 h, read-out: Anti-cancer activity HepG-2 (IC50)): 6.72 ± 0.5 µM
Structure (SMILES): COc1cccc2c1C(=O)c1c(O)c3c(c(O)c1C2=O)C[C@@](O)(C(=O)CO)C[C@@H]3O[C@H]1C[C@H](N)[C@H](O)[C@H](C)O1 [DOX, reference compound]
IC50 [4]: 6.72 ± 0.5 µM
cytotoxic effect on WI-38 normal cells [4]: highly toxic effects

IC50 (DPPH radical scavenging): 16.81 ± 0.1 µM
IC50 (ABTS radical scavenging): 29.47 ± 0.17 µM
Structure (SMILES): O=C1O[C@H]([C@@H](O)CO)C(O)=C1O [L-Ascorbic acid, reference compound]

— publication PMC11409709, “Inhibition of DRP-1 mitochondrial mitophagy and fission by novel α-aminophosphonates bearing pyridine: synthesis, biological evaluations, and computer-aided design” (BMC Chemistry, 2024)
